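Interpolation was linear, between the two tested concentrations surrounding the appropriate level; five concentrations were tested over 48 hours in 96-well plates. The concentration for 50% growth inhibition is given as GI50. TGI marks complete inhibition of growth.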
What was measured:
Experiment in all cases: inhibition of tumour cell growth, NCI panel, 48 h
ACHN renal = tested on: ACHN renal
HCC-2998 colon = tested on: HCC-2998 colon
HCT-116 colon = tested on: HCT-116 colon
K-562 leukemia = tested on: K-562 leukemia
LOX IMVI melanoma = tested on: LOX IMVI melanoma
MOLT-4 leukemia = tested on: MOLT-4 leukemia
PC-3 prostate = tested on: PC-3 prostate
SF-295 CNS = tested on: SF-295 CNS
SF-539 CNS = tested on: SF-539 CNS
T-47D breast = tested on: T-47D breast

Row | Compound | GI50 (ACHN renal) [µM] | TGI (ACHN renal) [µM] | GI50 (HCC-2998 colon) [µM] | TGI (HCC-2998 colon) [µM] | GI50 (HCT-116 colon) [µM] | TGI (HCT-116 colon) [µM] | GI50 (K-562 leukemia) [µM] | TGI (K-562 leukemia) [µM] | GI50 (LOX IMVI melanoma) [µM] | TGI (LOX IMVI melanoma) [µM] | GI50 (MOLT-4 leukemia) [µM] | TGI (MOLT-4 leukemia) [µM] | GI50 (PC-3 prostate) [µM] | TGI (PC-3 prostate) [µM] | GI50 (SF-295 CNS) [µM] | TGI (SF-295 CNS) [µM] | GI50 (SF-539 CNS) [µM] | TGI (SF-539 CNS) [µM] | GI50 (T-47D breast) [µM] | TGI (T-47D breast) [µM]
1 | Nc1c(C(=O)c2cccc(-c3cccnc3)c2)cnn1-c1ccc(F)cc1F | 6.92 | > 25 | 9.43 | > 25 | 2.87 | > 25 | 0.962 | 24.5 | 5.76 | > 25 | 7.85 | > 25 | 5.12 | > 25 | 3.26 | > 24 | 8.32 | > 25 | 1.57 | > 25
2 | N#CSCc1ccc(Cl)c(CSC#N)c1 | 0.0865 | 22.6 | 6.61 | 34.5 | 0.0379 | 14.8 | 0.0576 | > 45.5 | 0.151 | 13.6 | 0.109 | 53.5 | 1.35 | 27.1 | 3.15 | > 49.3 | 0.117 | 16.6 | 15.7 | 51.8
3 | C=C1CC[C@@H]2[C@](C)(COC(C)=O)[C@H](OC(C)=O)CC[C@@]2(C)[C@@H]1CC(Nc1ccc(S(=O)(=O)Nc2ccc(Cl)nn2)cc1)C1=CCOC1=O (stereo not given in full) | 1.68 | 3.32 | 1.84 | 3.86 | 1.08 | 2.32 | 0.526 | 5.19 | 0.295 | 1.19 | 1.96 | > 100 | 2.24 | 5.25 | 3.28 | 12.6 | 1.23 | 2.63 | 1.51 | 4.25
4 | O=[N+]([O-])c1cc(Cl)cnc1Br | – | 4.66 | – | 3.05 | – | 24 | – | 6.08 | – | 3.16 | – | 4.52 | – | 20.2 | – | 10.6 | – | 4.5 | – | > 100
5 | COc1ccc(CC(=O)c2ccc(O)cc2O)cc1 | > 100 | > 100 | > 100 | > 100 | > 100 | > 100 | 40.3 | > 100 | > 100 | > 100 | 57.4 | > 100 | 41.1 | > 100 | 46.2 | > 100 | > 100 | > 100 | 56.7 | > 100
6 | Cc1[nH]c(=O)nc(Nc2ccc(Cl)cc2)c1C(=O)N1CCN(CCO)CC1 | > 100 | > 100 | > 100 | > 100 | 81.9 | > 100 | > 100 | > 100 | > 100 | > 100 | > 100 | > 100 | > 100 | > 100 | 32.1 | > 100 | 75.9 | > 100 | 84.2 | > 100
7 | COc1ccc(C2=C(c3ccc(OC)c(OC)c3)C(=O)N3CCCC3C2)cc1 (stereo not given) | 34 | > 100 | 53.6 | > 100 | 9.64 | > 100 | 7.32 | > 100 | 10.4 | > 52.7 | 2.72 | 19.6 | 9.73 | > 100 | 29.2 | > 100 | 12 | > 100 | 42.3 | > 100
8 | Cc1ccc(-c2nc3nc(-c4ccccc4)nc(N4CCNCC4)c3o2)cc1 | 0.495 | 1.07 | 1.4 | 2.86 | 0.185 | 0.337 | 0.235 | 0.521 | 0.177 | 0.323 | 0.238 | 0.573 | 0.947 | 2.46 | 0.589 | 1.19 | 0.703 | 1.85 | 0.832 | 2.6
9 | O=C1C(SCCO)=C(SCCO)C(=O)N1c1ccc(-c2ccccc2)cc1 | 1.68 | 3.11 | 3.65 | 9.87 | 0.536 | 1.24 | > 50 | > 100 | 2.7 | 8.44 | 18.9 | 73.1 | 1.07 | 7.57 | 20.7 | 46.1 | 1.78 | 3.92 | 1.71 | 7.43
10 | COC(=O)Nc1nc2ccc(Oc3cccc(NC(=O)Nc4cc(C(F)(F)F)ccc4F)c3)cc2[nH]1 | 24.4 | > 25 | 13.2 | > 25 | 7.71 | > 25 | 0.452 | > 25 | 9.08 | > 25 | 15.8 | > 25 | 14.3 | > 25 | 14.6 | > 25 | > 21.6 | > 25 | 8.64 | > 25
11 | O=C1C(c2cnc3ccccc3n2)=C(O)c2ccccc21 | – | > 100 | – | > 100 | – | > 100 | – | > 100 | – | > 61.5 | – | > 100 | – | > 85.7 | – | > 88.1 | – | > 100 | – | > 100
12 | Cc1cn2c(/C=C3/C(=O)Nc4ccc(O)cc43)c(C)nc2s1 | 5.72 | 62.8 | 1.76 | 5.01 | 1.22 | > 45.5 | 0.362 | > 61.8 | 4.46 | 99.6 | 4.46 | 48.6 | 2.11 | 37.2 | 1.73 | 8.08 | 2.42 | 9.16 | 2.64 | 25.5
13 | CCN1C(=O)N(CC)C2C1NN=c1s/c(=C\c3ccccn3)c(=O)n12 (stereo not given) | 6.45 | > 100 | 3.17 | > 100 | 0.825 | > 100 | 0.446 | > 100 | 5.71 | > 100 | 1.57 | > 100 | 1.79 | > 100 | 2.72 | > 100 | 1.74 | 7.9 | 4.84 | > 100
14 | O1[As]2O[As]3O[As]1O[As](O2)O3 | 2.54 | 11.2 | 1.65 | 3.6 | 1.27 | 2.8 | 0.317 | 2.99 | 0.657 | 2.13 | 1.28 | 4.58 | 0.781 | 5.9 | 2.63 | 9 | 0.347 | 1.71 | 0.474 | 12.6
15 | Cc1ccc(C(=O)NC2CCC2)cc1-c1ccc(C(=O)NCC2CC2)cc1 | > 25 | > 25 | > 25 | > 25 | > 25 | > 25 | > 25 | > 25 | > 25 | > 25 | > 25 | > 25 | > 25 | > 25 | > 25 | > 25 | > 25 | > 25 | 12.9 | > 25
16 | Nc1c(C(=O)c2cccc(C#CCO)c2)cnn1-c1ccc(F)cc1 | > 25 | > 25 | > 25 | > 25 | > 25 | > 25 | > 25 | > 25 | > 25 | > 25 | > 25 | > 25 | > 25 | > 25 | > 25 | > 25 | > 25 | > 25 | > 25 | > 25
17 | COC(=N)c1c(N)[n+]([O-])c2ccc(F)cc2[n+]1[O-] | > 100 | > 100 | > 100 | > 100 | > 100 | > 100 | > 100 | > 100 | > 100 | > 100 | > 100 | > 100 | > 100 | > 100 | > 100 | > 100 | > 100 | > 100 | > 100 | > 100
